Assay: Preliminary tests: lutein added to an aqueous solution under stirring
Assay type: physicochemical
Conditions: even under strong and prolonged stirring
Excerpt: As noted, lutein, being a lipophilic molecule, is insoluble in water.

CC1=C[C@H](O)CC(C)(C)C1/C=C/C(C)=C/C=C/C(C)=C/C=C/C=C(C)/C=C/C=C(C)/C=C/C1=C(C)C[C@@H](O)CC1(C)C (stereo partly drawn) [lutein, β, ε-caroten-3,3′-diol]
behaviour of lutein in aqueous solution (solubility): for the most part deposits rapidly on the bottom

From patent US12622881B2, “Water-soluble topical ophthalmic preparation containing lutein and production method thereof” (Omisan Farmaceutici S.R.L., priority 2021, dated 2026)
